Paper PMC5762309 (Oncotarget, 2017)

Legend:
BaF3 = test: Anti-proliferation assay, parental BaF3 cells; format: cell-based; conditions: Mus musculus, 72 hours, CellTiter-Glo
Description: The KIT mutant isogenic BaF3 cells lines and Colo320DM cells were cultured in RPMI 1640 media (Corning, USA) with 10% fetal bovine serum (FBS) and supplemented with 2% L-glutamine 1% penicillin/streptomycin, the BaF3 cell line was cultured in RPMI 1640 media (Corning, USA) with 1% IL-3, 10% fetal bovine serum (FBS) and supplemented with 2% L-glutamine 1% penicillin/streptomycin. All cell lines were maintained in culture media at 37°C with 5% CO2.
Cells were grown in 96-well culture plates (2500/well). The compounds of various concentrations were added into the plates. Cell proliferation was determined after treatment with compounds for 72 hours. Cell viability was measured using the CellTiter–Glo assay (Promega, USA), according to the manufacturer’s instructions, and luminescence was measured in a multi-label reader (Envision, PerkinElmer, USA). Data were normalized to control groups (DMSO) and represented by the mean of three independent measurements with standard error <20%. GI50 values were calculated using Prism 5.0 (GraphPad Software, San Diego, CA).

[1] = test system: AKT, S6, ERK, p70S6K and STAT3 phosphorylation; test: Signaling pathway study in BaF3-TEL-KIT-V559D cells; format: cell-based; conditions: KIT-V559D transformed stable BaF3 cells, Western blot
ACVR2B = target: T1, ACVR2B (Homo sapiens, UniProt Q13705); test: KINOMEScan; format: binding; design: dose or concentration left out as unconfirmed
T1 construct: purchased DiscoverX KINOMEscan

ARK5 = target: T2, ARK5 (Homo sapiens, UniProt O60285); test: KINOMEScan; format: binding; design: dose or concentration left out as unconfirmed
T2 construct: purchased DiscoverX KINOMEscan
T2 sequence (O60285 whole entry): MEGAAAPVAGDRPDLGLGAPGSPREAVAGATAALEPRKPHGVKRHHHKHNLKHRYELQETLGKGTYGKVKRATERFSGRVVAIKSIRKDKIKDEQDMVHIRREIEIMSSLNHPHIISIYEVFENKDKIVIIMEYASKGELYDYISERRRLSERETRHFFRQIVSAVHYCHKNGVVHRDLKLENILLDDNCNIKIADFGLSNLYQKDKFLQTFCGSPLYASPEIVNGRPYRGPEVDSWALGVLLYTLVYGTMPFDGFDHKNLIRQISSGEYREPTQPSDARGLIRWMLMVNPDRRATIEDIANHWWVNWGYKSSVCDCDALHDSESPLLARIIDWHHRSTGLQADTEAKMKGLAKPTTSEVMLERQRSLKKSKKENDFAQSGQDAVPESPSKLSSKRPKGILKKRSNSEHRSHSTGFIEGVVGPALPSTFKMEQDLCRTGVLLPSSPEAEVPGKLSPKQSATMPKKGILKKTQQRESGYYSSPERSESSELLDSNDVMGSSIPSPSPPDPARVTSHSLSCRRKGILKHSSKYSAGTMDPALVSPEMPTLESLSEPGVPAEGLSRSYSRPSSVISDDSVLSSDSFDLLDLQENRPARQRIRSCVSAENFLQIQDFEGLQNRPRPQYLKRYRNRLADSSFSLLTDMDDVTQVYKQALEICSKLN

CDK8 = target: T3, CDK8 (Homo sapiens, UniProt P49336); test: KINOMEScan; format: binding; design: dose or concentration left out as unconfirmed
T3 construct: purchased DiscoverX KINOMEscan
T3 sequence (P49336 whole entry): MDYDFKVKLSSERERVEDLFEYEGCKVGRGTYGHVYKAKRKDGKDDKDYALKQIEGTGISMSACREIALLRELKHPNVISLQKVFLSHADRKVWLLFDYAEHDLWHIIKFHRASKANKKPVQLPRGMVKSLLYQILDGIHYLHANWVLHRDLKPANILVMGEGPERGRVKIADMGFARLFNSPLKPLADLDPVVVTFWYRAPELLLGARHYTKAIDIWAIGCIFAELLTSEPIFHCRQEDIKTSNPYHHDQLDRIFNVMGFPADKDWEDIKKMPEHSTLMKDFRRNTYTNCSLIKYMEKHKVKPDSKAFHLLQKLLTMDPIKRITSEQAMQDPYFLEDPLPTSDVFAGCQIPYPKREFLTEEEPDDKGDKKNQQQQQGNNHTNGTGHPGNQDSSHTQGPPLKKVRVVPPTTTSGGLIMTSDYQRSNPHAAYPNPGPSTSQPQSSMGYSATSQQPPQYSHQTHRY

CSK = target: T4, CSK (Homo sapiens, UniProt P41240); test: KINOMEScan; format: binding; design: dose or concentration left out as unconfirmed
T4 construct: purchased DiscoverX KINOMEscan

CSNK1G3 = target: T5, CSNK1G3 (Homo sapiens, UniProt Q9Y6M4); test: KINOMEScan; format: binding; design: dose or concentration left out as unconfirmed
T5 construct: purchased DiscoverX KINOMEscan

DLK = target: T6, DLK (Homo sapiens, UniProt Q12852); test: KINOMEScan; format: binding; design: dose or concentration left out as unconfirmed
T6 construct: purchased DiscoverX KINOMEscan

EGFR(E746-A750del) = target: T7, EGFR(E746-A750del) (Homo sapiens, UniProt P00533, DEL746-750); test: KINOMEScan; format: binding; conditions: Concentrations 1 mM
T7 construct: purchased DiscoverX KINOMEscan

EGFR(G719S) = target: T8, EGFR(G719S) (Homo sapiens, UniProt P00533, G719S); test: KINOMEScan; format: binding; design: dose or concentration left out as unconfirmed
T8 construct: purchased DiscoverX KINOMEscan

[2] = target: T9, EGFR(L747-E749del, A750P) (Homo sapiens, UniProt P00533, A750P/DEL747-749); test: KINOMEScan; format: binding; design: dose or concentration left out as unconfirmed
T9 construct: purchased DiscoverX KINOMEscan

[3] = target: T10, EGFR(L747-S752del, P753S) (Homo sapiens, UniProt P00533, DEL747-752/P753S); test: KINOMEScan; format: binding; design: dose or concentration left out as unconfirmed
T10 construct: purchased DiscoverX KINOMEscan
T10 sequence (P00533 with tags, fused parts or gaps DEL747-752/P753S limits assumed): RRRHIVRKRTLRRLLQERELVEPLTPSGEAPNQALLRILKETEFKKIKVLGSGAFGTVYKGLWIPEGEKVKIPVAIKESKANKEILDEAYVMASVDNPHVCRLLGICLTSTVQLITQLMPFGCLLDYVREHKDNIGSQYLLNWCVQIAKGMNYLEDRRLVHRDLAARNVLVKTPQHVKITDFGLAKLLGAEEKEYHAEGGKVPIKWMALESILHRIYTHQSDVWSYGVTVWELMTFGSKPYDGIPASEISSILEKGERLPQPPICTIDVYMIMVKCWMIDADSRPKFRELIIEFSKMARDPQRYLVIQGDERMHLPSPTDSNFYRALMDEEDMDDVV

EGFR(L858R) = target: T11, EGFR(L858R) (Homo sapiens, UniProt P00533, L858R); test: KINOMEScan; format: binding; design: dose or concentration left out as unconfirmed
T11 construct: purchased DiscoverX KINOMEscan

EGFR(L861Q) = target: T12, EGFR(L861Q) (Homo sapiens, UniProt P00533, L861Q); test: KINOMEScan; format: binding; design: dose or concentration left out as unconfirmed
T12 construct: purchased DiscoverX KINOMEscan

EGFR(S752-I759del) = target: T13, EGFR(S752-I759del) (Homo sapiens, UniProt P00533, DEL752-759); test: KINOMEScan; format: binding; design: dose or concentration left out as unconfirmed
T13 construct: purchased DiscoverX KINOMEscan

EGFR(T790M) = target: T14, EGFR(T790M) (Homo sapiens, UniProt P00533, T790M); test: KINOMEScan; format: binding
T14 construct: purchased DiscoverX KINOMEscan

EPHA5 = target: T15, EPHA5 (Homo sapiens, UniProt P54756); test: KINOMEScan; format: binding; design: dose or concentration left out as unconfirmed
T15 construct: purchased DiscoverX KINOMEscan

IRAK4 = target: T16, IRAK4 (Homo sapiens, UniProt Q9NWZ3); test: KINOMEScan; format: binding; design: dose or concentration left out as unconfirmed
T16 construct: purchased DiscoverX KINOMEscan

LOK = target: T17, LOK (Homo sapiens, UniProt O94804); test: KINOMEScan; format: binding; design: dose or concentration left out as unconfirmed
T17 construct: purchased DiscoverX KINOMEscan

MKK7 = target: T18, MKK7 (Homo sapiens, UniProt O14733); test: KINOMEScan; format: binding; design: dose or concentration left out as unconfirmed
T18 construct: purchased DiscoverX KINOMEscan

MLK3 = target: T19, MLK3 (Homo sapiens, UniProt Q16584); test: KINOMEScan; format: binding; design: dose or concentration left out as unconfirmed
T19 construct: purchased DiscoverX KINOMEscan

MST3 = target: T20, MST3 (Homo sapiens, UniProt Q9Y6E0); test: KINOMEScan; format: binding; design: dose or concentration left out as unconfirmed
T20 construct: purchased DiscoverX KINOMEscan
T20 sequence (Q9Y6E0 whole entry): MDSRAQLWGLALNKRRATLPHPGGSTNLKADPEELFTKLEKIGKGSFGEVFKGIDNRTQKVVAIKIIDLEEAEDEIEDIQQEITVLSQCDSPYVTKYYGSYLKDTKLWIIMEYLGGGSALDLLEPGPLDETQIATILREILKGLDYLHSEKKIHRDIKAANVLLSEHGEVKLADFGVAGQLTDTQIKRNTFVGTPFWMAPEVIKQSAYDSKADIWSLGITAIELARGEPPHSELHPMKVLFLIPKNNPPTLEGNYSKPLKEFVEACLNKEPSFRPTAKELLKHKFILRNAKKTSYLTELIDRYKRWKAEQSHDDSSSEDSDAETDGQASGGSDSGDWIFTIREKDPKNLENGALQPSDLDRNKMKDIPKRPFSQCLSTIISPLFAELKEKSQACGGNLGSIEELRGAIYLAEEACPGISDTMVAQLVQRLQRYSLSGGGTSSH

PIKFYVE = target: T21, PIKFYVE (Homo sapiens, UniProt Q9Y2I7); test: KINOMEScan; format: binding; design: dose or concentration left out as unconfirmed
T21 construct: purchased DiscoverX KINOMEscan

QSK = target: T22, QSK (Homo sapiens, UniProt Q9Y2K2); test: KINOMEScan; format: binding; design: dose or concentration left out as unconfirmed
T22 construct: purchased DiscoverX KINOMEscan
T22 sequence (Q9Y2K2 whole entry): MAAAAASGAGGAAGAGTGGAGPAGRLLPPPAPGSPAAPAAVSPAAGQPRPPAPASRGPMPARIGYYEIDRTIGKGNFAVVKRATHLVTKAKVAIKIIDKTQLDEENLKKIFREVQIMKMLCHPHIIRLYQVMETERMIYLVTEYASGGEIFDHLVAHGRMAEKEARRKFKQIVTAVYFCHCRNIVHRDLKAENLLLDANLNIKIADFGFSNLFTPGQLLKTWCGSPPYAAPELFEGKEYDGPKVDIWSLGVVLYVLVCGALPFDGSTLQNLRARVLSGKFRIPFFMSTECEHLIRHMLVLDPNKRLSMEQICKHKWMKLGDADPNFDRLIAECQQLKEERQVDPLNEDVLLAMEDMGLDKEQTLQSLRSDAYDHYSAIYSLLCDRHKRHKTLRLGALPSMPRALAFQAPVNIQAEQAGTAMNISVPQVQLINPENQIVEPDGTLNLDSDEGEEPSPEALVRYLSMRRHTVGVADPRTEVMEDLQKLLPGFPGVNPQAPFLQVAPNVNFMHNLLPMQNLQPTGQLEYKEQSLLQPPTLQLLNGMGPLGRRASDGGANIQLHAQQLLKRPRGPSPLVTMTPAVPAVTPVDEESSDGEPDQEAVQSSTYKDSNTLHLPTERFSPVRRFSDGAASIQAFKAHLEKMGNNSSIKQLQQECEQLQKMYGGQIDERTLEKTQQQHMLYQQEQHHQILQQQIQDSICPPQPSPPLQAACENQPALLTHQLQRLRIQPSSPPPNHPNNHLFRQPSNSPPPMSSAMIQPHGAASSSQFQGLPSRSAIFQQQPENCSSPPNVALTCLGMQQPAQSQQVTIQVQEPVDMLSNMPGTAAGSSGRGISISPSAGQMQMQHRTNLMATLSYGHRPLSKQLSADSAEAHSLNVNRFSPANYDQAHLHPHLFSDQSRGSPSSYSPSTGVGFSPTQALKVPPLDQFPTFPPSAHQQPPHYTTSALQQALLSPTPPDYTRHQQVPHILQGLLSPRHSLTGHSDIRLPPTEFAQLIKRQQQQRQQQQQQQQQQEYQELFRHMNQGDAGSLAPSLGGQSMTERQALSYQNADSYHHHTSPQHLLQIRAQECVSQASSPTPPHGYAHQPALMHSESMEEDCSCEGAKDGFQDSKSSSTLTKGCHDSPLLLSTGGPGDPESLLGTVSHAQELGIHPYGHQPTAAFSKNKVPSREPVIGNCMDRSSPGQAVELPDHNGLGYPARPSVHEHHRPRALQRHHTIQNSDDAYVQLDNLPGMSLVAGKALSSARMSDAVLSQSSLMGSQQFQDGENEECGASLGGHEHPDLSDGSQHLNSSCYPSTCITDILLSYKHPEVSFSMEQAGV

[4] = target: T23, RSK4(Kin.Dom.1-N-terminal) (Homo sapiens, UniProt Q9UK32); test: KINOMEScan; format: binding
T23 construct: RSK4(Kin.Dom.1-N-terminal); purchased DiscoverX KINOMEscan

SYK = target: T24, SYK (Homo sapiens, UniProt P43405); test: KINOMEScan; format: binding; design: dose or concentration left out as unconfirmed
T24 construct: purchased DiscoverX KINOMEscan

[5] = target: T25, TYK2(JH1domain-catalytic) (Homo sapiens, UniProt P29597); test: KINOMEScan; format: binding; design: dose or concentration left out as unconfirmed
T25 construct: TYK2(JH1domain-catalytic); purchased DiscoverX KINOMEscan

WNK1 = target: T26, WNK1 (Homo sapiens, UniProt Q9H4A3); test: KINOMEScan; format: binding; design: dose or concentration left out as unconfirmed
T26 construct: purchased DiscoverX KINOMEscan

KIT V559D = KIT V559D (Homo sapiens, UniProt P10721, V559D); test: KIT auto-phosphorylation in transformed BaF3 cells; conditions: 2h
Sequence of KIT V559D (P10721 546-976 V559D): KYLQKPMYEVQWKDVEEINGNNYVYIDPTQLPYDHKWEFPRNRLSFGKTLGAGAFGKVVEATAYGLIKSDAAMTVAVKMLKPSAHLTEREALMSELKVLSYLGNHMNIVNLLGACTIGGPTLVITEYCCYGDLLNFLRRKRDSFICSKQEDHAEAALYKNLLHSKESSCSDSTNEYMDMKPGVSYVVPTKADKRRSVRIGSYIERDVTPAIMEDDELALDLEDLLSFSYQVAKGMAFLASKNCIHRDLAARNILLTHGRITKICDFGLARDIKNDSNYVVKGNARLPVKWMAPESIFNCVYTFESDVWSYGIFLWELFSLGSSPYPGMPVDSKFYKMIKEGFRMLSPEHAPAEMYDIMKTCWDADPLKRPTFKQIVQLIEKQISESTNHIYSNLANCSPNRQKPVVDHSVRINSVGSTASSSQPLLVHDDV

KIT T670I = KIT T670I (Homo sapiens, UniProt P10721, T670I); test: KIT auto-phosphorylation in transformed BaF3 cells; conditions: 2h
Sequence of KIT T670I (P10721 26-976 T670I): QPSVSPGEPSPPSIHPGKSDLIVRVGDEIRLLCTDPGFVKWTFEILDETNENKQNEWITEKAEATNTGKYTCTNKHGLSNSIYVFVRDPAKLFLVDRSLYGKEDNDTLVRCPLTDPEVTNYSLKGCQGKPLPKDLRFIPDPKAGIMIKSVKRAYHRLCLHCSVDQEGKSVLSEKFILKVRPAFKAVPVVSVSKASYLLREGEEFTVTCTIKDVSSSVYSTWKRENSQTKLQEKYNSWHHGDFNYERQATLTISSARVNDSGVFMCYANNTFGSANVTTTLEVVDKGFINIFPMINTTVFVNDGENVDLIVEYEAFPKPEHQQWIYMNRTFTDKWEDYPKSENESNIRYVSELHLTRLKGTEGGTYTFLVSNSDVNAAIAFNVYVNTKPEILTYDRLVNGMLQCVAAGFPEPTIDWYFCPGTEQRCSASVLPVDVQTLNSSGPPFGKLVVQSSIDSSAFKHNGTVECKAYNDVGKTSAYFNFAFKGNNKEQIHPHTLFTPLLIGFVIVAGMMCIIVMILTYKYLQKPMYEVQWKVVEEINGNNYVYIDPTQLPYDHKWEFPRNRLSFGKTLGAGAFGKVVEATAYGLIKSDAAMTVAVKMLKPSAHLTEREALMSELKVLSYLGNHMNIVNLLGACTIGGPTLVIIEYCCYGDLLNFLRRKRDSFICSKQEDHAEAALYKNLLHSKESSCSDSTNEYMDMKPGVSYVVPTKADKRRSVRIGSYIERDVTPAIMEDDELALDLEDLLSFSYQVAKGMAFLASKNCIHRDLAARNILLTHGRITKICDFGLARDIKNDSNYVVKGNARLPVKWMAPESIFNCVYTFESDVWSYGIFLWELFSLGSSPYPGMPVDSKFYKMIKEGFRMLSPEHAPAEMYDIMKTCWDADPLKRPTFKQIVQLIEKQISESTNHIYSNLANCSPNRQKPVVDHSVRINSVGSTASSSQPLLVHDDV

KIT V654A = KIT V654A (Homo sapiens, UniProt P10721, V654A); test: KIT auto-phosphorylation in transformed BaF3 cells; conditions: 2h
Sequence of KIT V654A (P10721 546-976 V654A): as the sequence (P10721 546-976 V559D) above, with D14V, V109A counted along it

KIT wt = KIT wt (Homo sapiens, UniProt P10721); test: ADP-Glo biochemical assay; design: wt KIT residues 544-935 with a His tag; His tag; made in house; host or cells: SF9 insect cells (baculovirus); conditions: purified kinase protein, 100 μM ATP
Sequence of KIT wt (P10721 544-935): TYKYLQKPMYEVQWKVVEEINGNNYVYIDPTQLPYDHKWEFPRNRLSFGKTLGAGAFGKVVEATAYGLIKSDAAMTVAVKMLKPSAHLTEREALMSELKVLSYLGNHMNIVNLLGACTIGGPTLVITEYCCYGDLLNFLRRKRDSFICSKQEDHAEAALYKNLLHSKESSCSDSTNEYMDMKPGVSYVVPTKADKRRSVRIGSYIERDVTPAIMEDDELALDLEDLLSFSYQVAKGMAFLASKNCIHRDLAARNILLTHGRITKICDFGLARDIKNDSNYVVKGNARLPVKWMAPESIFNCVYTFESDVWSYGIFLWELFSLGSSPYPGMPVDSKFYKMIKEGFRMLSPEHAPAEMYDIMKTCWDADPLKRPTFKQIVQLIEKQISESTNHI

[6] = EC50 pY703 auto-phosphorylation
[7] = EC50 pY719 auto-phosphorylation
[8] = EC50 pY823 auto-phosphorylation

COc1cc(C(=O)NCC(=O)Nc2ccc3c(/C=C/c4ccccn4)n[nH]c3c2)cc(OC)c1OC [CHMFL-KIT-031]
GI50 (BaF3): > 10 µM | phosphorylation of downstream mediators AKT, S6, ERK, p70S6K and STAT3 [1]: potently inhibited | KINOMEScan profiling value (ACVR2B): 100 | KINOMEScan profiling value (ARK5): 97 | KINOMEScan profiling value (CDK8): 100 | KINOMEScan profiling value (CSK): 87 | KINOMEScan profiling value (CSNK1G3): 99 | KINOMEScan profiling value (DLK): 97 | KINOMEScan profiling value (EGFR(E746-A750del)): 100 | KINOMEScan profiling value (EGFR(G719S)): 95 | KINOMEScan profiling value [2]: 100 | KINOMEScan profiling value [3]: 100 | KINOMEScan profiling value (EGFR(L858R)): 100 | KINOMEScan profiling value (EGFR(L861Q)): 100 | KINOMEScan profiling value (EGFR(S752-I759del)): 92 | KINOMEScan profiling value (EGFR(T790M)): 100 | KINOMEScan profiling value (EPHA5): 100 | KINOMEScan profiling value (IRAK4): 100 | KINOMEScan profiling value (LOK): 96 | KINOMEScan profiling value (MKK7): 100 | KINOMEScan profiling value (MLK3): 100 | KINOMEScan profiling value (MST3): 86 | KINOMEScan profiling value (PIKFYVE): 87 | KINOMEScan profiling value (QSK): 82 | KINOMEScan profiling value [4]: 97 | KINOMEScan profiling value (SYK): 100 | KINOMEScan profiling value [5]: 100 | KINOMEScan profiling value (WNK1): 19 | EC50 (KIT V559D; [6]): 0.151 µM | EC50 (KIT V559D; [7]): 0.137 µM | EC50 (KIT V559D; [8]): 0.118 µM | EC50 (KIT T670I; [6]): > 10 µM | EC50 (KIT T670I; [7]): > 10 µM | EC50 (KIT T670I; [8]): 1.1 µM | EC50 (KIT V654A; [6]): 0.508 µM | EC50 (KIT V654A; [7]): 2.2 µM | EC50 (KIT V654A; [8]): 4.6 µM | IC50 (KIT wt): 0.168 µM
